Data from PMC6015718, “Effect of Polyvalence on the Antibacterial Activity of a Synthetic Peptide Derived from Bovine Lactoferricin against Healthcare-Associated Infectious Pathogens” (BioMed Research International, 2018).
Several values for one entry are separate records, joined by “and”; a condition that tells them apart may be missing. Equal entries are not always repeated. Where two headings read alike, the source gives them in different places. Positions of bridges follow the written chain, without caps; N, C: chain ends. Non-standard residues stand in square brackets, D forms with d. Residues, ends and D or L forms follow the SMILES beside them. Chains are numbered I, II in the order given. Ahx = NCCCCCC(=O)O

Key:
Format in all cases: cell-based
[1] = system: Klebsiella pneumoniae ATCC 700603 (resistant)
Text: (§1) All microorganisms were purchased from the American Type Culture Collection (ATCC). To determine the antibacterial activity of synthetic peptides against HCAI bacteria, the Staphylococcus aureus strains ATCC 25923 and ATCC 33591 were employed as sensitive and resistant strains, respectively, of a Gram-positive microorganisms species, and Klebsiella pneumoniae ATCC 13883 and ATCC 700603 as sensitive and resistant strains of a Gram-negative species.
(§2) To determine the MBC, an aliquot from each well of the MIC assay was spread onto MHA. After 18 h at 37°C, the concentration that inhibited bacterial growth was determined. Each of these tests was performed four times. MBC was defined as the lowest concentration of peptide that reduced the number of bacteria by 99.9% in vitro [12].

[2] = system: Klebsiella pneumoniae ATCC 13883 (sensitive)
Text: as §1, §2

[3] = system: Staphylococcus aureus ATCC 25923 (sensitive)
Text: as §1, §2

[4] = system: Staphylococcus aureus ATCC 33591 (resistant)
Text: as §1, §2

[5] = system: Klebsiella pneumoniae ATCC 700603 (resistant); remark: listed apart in the source
Text: as §1
(§3) The antibacterial activity assay for peptides and controls was performed according to the National Committee for Clinical Laboratory Standards method M7-A7 [11]. MIC and MBC values were determined using a broth microdilution and growth inhibition method with some modification. Briefly, MIC assays were performed by liquid inhibition growth assay in an untreated sterile 96-well flat-bottom tissue culture plate. Bacteria were cultured overnight on Mueller-Hinton agar (MHA). Three colonies were transferred to 8 mL of Mueller-Hinton broth (MHB) and incubated at 37°C until the mid-exponential phase of growth. The turbidity of the cultures was measured and adjusted spectrophotometrically to McFarland standard 0.5, then diluted to a final concentration of […]. Synthetic antibacterial peptide candidate stock solutions were diluted to final concentrations per well of 200, 100, 50, 25, 12.5, and 6.25 μM. […]
(§4) Wells containing MHB with bacterial inoculum only served as bacterial growth controls. Additional controls included MHB alone and MHB with ciprofloxacin (CIP) (2 μg/mL) and bacteria as a positive control. The microplate was incubated for 24 h at 37°C, and growth inhibition was examined by monitoring the optical density at 620 nm (OD620). MIC was defined as the lowest peptide concentration that inhibited bacteria growth >90%.

[6] = system: Klebsiella pneumoniae ATCC 13883 (sensitive); remark: listed apart in the source
Text: as §1, §3, §4

[7] = system: Staphylococcus aureus ATCC 25923 (sensitive); remark: listed apart in the source
Text: as §1, §3, §4

[8] = system: Staphylococcus aureus ATCC 33591 (resistant); remark: listed apart in the source
Text: as §1, §3, §4

[9] = system: human erythrocytes; assay: Haemolytic activity; details: 6.25-100 μM peptide; human erythrocytes 2% haematocrit in PBS, 2 h 37°C, OD492; n = 2
Protocol: Human erythrocytes collected from the blood samples of healthy humans were harvested by centrifugation for 7 min at 162 ×g and washed three times in phosphate-buffered saline (PBS). The erythrocytes (2% haematocrit in PBS) were incubated with peptide molecules at several concentrations (6.25, 12.5, 25, 50, and 100 μM), for 2 h at 37°C. PBS was used as a negative control, and sterile distilled water was used as a positive control for haemolysis (100% of haemolysis). The plate was subsequently centrifuged at 1459 ×g for 10 min at 4°C. Aliquots of the supernatants of each well (75 μL) were carefully transferred to a new sterile 96-well plate, and haemolytic activity was evaluated by measuring the OD492 using an Asys Expert Plus Microplate reader. The experiments were performed in duplicate, and peptide haemolysis activity was calculated.
Lastly, to evaluate the effects of the peptides on normal human erythrocytes, their haemolysis activity was investigated (Figure 6). The percentage of haemolytic activity on human red blood cells after 2 hours was determined via the standard microtitre dilution method. The peptide concentration is reported as μM.

With `N=C(N)NCCC[C@H](NC(=O)[C@H](Cc1c[nH]c2ccccc12)NC(=O)[C@H](CCC(N)=O)NC(=O)[C@H](Cc1c[nH]c2ccccc12)NC(=O)[C@H](CCCNC(=N)N)NC(=O)[C@@H](N)CCCNC(=N)N)C(=O)NCCCC[C@H](NC(=O)[C@H](CCCNC(=N)N)NC(=O)[C@H](Cc1c[nH]c2ccccc12)NC(=O)[C@H](CCC(N)=O)NC(=O)[C@H](Cc1c[nH]c2ccccc12)NC(=O)[C@H](CCCNC(=N)N)NC(=O)[C@@H](N)CCCNC(=N)N)C(=O)NCCCCCC(N)=O` [Dimeric] (I: H-RRWQWRK[Ahx]-NH2 / II: H-RRWQWR; amide I:7-II:C; N-terminus assumed) the MBC ([1]; ATCC 700603, 18 h) was 100 µM, the MBC ([1]; K. pneumoniae ATCC 700603 resistant, MHA, 18 h 37°C, 99.9% reduction) was 220 µg/mL and the “MBC as a function of the MBC of the tetrameric peptide” value (“MBC as a function” below) ([1]; K. pneumoniae resistant strain, from concentrations in μg/mL) was 1.9 x MBC. For the same compound, the MBC ([2]; ATCC 13883, 18 h) was 25 µM, the MBC ([2]; K. pneumoniae ATCC 13883 sensitive, MHA, 18 h 37°C, 99.9% reduction) was 55 µg/mL and the “MBC as a function” value ([2]; K. pneumoniae sensitive strain, from concentrations in μg/mL) was 0.5 x MBC. It also gave an MBC ([3]; ATCC 25923, 18 h) of 50 µM, an MBC ([3]; S. aureus ATCC 25923 sensitive, MHA, 18 h 37°C, 99.9% reduction, average of four independent experiments) of 110 µg/mL and an MBC ([3]; S. aureus ATCC 25923 sensitive, MHA, 18 h 37°C, 99.9% reduction, average of four independent experiments, listed as dimeric) of at least 110 µg/mL. The MBC ([3]; S. aureus ATCC 25923 sensitive, value in parentheses, MHA, 18 h 37°C, 99.9% reduction) was at least 50 µM, the “MBC as a function” value ([3]; S. aureus sensitive strain, from concentrations in μg/mL) was 1.9 x MBC and the MBC ([4]; ATCC 33591, 18 h) was 50 µM. It also gave an MBC ([4]; S. aureus ATCC 33591 resistant, MHA, 18 h 37°C, 99.9% reduction) of 110 µg/mL, an MBC ([4]; S. aureus ATCC 33591 resistant, MHA, 18 h 37°C, 99.9% reduction, listed as dimeric) of at least 110 µg/mL and an MBC ([4]; S. aureus ATCC 33591 resistant, value in parentheses, MHA, 18 h 37°C, 99.9% reduction) of at least 50 µM. For the same compound, the “MBC as a function” value ([4]; S. aureus resistant strain, from concentrations in μg/mL) was 1.9 x MBC, the MIC ([5]; ATCC 700603, 24 h) was 12.5 µM and the MIC ([5]; K. pneumoniae ATCC 700603 resistant, MHB, 24 h 37°C, OD620, >90% inhibition, average of four independent experiments in duplicate) was 27 µg/mL. The MIC ([5]; K. pneumoniae ATCC 700603 resistant, MHB, 24 h 37°C, OD620, >90% inhibition, average of four independent experiments in duplicate, listed as dimeric) was at least 27 µg/mL, the MIC ([5]; K. pneumoniae ATCC 700603 resistant, value in parentheses, MHB, 24 h 37°C, OD620, >90% inhibition) was ≥ 12,5 µM and the “concentration at which antibacterial activity was exhibited (dose-response profile)” value ([5]; K. pneumoniae resistant strain, Figure 3) was ≤ 27 μg/mL and ≤ 12,5 μM. The MIC ([6]; ATCC 13883, 24 h) was 12.5 µM, the MIC ([6]; K. pneumoniae ATCC 13883 sensitive, MHB, 24 h 37°C, OD620, >90% inhibition, average of four independent experiments in duplicate) was 27 µg/mL and the MIC ([6]; K. pneumoniae ATCC 13883 sensitive, MHB, 24 h 37°C, OD620, >90% inhibition, average of four independent experiments in duplicate, listed as dimeric) was at least 27 µg/mL. For the same compound, the MIC ([6]; K. pneumoniae ATCC 13883 sensitive, value in parentheses, MHB, 24 h 37°C, OD620, >90% inhibition) was ≥ 12,5 µM, the “concentration at which antibacterial activity was exhibited (dose-response profile)” value ([6]; K. pneumoniae sensitive strain, Figure 3) was ≤ 27 μg/mL and ≤ 12,5 μM and the MIC ([7]; ATCC 25923, 24 h) was 6.25 µM. It also gave an MIC ([7]; S. aureus ATCC 25923 sensitive, MHB, 24 h 37°C, OD620, lowest concentration inhibiting growth >90%, average of four independent experiments in duplicate) of 14 µg/mL, an MIC ([7]; S. aureus ATCC 25923 sensitive, MHB, 24 h 37°C, OD620, lowest concentration inhibiting growth >90%, average of four independent experiments in duplicate, listed as dimeric) of at least 14 µg/mL and an MIC ([7]; S. aureus ATCC 25923 sensitive, value in parentheses, MHB, 24 h 37°C, OD620, >90% inhibition, average of four independent experiments in duplicate) of at least 6.25 µM. For the same compound, the “concentration at which antibacterial activity was displayed (dose-response profile)” value ([7]; S. aureus sensitive strain, Figure 2) was ≥ 14 μg/mL and ≥ 6.25 μM, the MIC ([8]; ATCC 33591, 24 h) was 25 µM and the MIC ([8]; S. aureus ATCC 33591 resistant, MHB, 24 h 37°C, OD620, >90% inhibition, average of four independent experiments in duplicate) was 55 µg/mL. The MIC ([8]; S. aureus ATCC 33591 resistant, MHB, 24 h 37°C, OD620, >90% inhibition, average of four independent experiments in duplicate, listed as dimeric) was at least 55 µg/mL, the MIC ([8]; S. aureus ATCC 33591 resistant, value in parentheses, MHB, 24 h 37°C, OD620, >90% inhibition) was at least 25 µM and the “haemolysis activity over the concentrations tested” value [9] was under 5%.
